Our source for the IC50 and viability, T/C values is PubChem BioAssay AID1918932 (Molecular Pharmacology Branch, DTP, NCI, 2023).

Values joined by “and” are separate entries in the source; they are usually repeats but may differ in a detail not shown here. Equal values may be shown once.

The test system of this test is 171881-019-R-J1-PDC complex spheroid viability. The test is described as follows: Anticancer human tumor 171881-019-R-J1-PDC patient-derived invasive breast carcinoma cell line growth inhibition. The note with it: for viability, T/C: stronger effect = lower value. In a few lines: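 Complex spheroids of tumor cells with HUVEC and human MSCs, exposed to iadademstat combined with other agents. Each agent tested in half-log steps from near clinical Cmax (else 10 microM top), DMSO ≤0.25%.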

Setting [1] is: curve of first compound, second compound 0.1 µM.
Setting [2] is: curve of first compound, second compound 0.316 µM.
The mark [3] stands for this setting: curve of first compound, second compound 1 µM.
Where [4] appears, read: curve of first compound, second compound 3.16 µM.
[5] abbreviates: curve of first compound, second compound 10 µM.
Where [6] appears, read: second compound 0.1 µM, first compound 0.000316 µM.
Where [7] appears, read: second compound 0.1 µM, first compound 0.001 µM.
Setting [8] is: second compound 0.1 µM, first compound 0.00316 µM.
[9] abbreviates: second compound 0.1 µM, first compound 0.01 µM.
[10] abbreviates: second compound 0.1 µM, first compound 0.0316 µM.
Setting [11] is: second compound 0.1 µM, first compound 0.1 µM.
Where [12] appears, read: second compound 0.316 µM, first compound 0.000316 µM.
The mark [13] stands for this setting: second compound 0.316 µM, first compound 0.001 µM.
Where [14] appears, read: second compound 0.316 µM, first compound 0.00316 µM.
Setting [15] is: second compound 0.316 µM, first compound 0.01 µM.
Where [16] appears, read: second compound 0.316 µM, first compound 0.0316 µM.
Where [17] appears, read: second compound 0.316 µM, first compound 0.1 µM.
Setting [18] is: second compound 1 µM, first compound 0.000316 µM.
Setting [19] is: second compound 1 µM, first compound 0.001 µM.
Setting [20] is: second compound 1 µM, first compound 0.00316 µM.
Where [21] appears, read: second compound 1 µM, first compound 0.01 µM.
Setting [22] is: second compound 1 µM, first compound 0.0316 µM.
Setting [23] is: second compound 1 µM, first compound 0.1 µM.
Where [24] appears, read: second compound 3.16 µM, first compound 0.000316 µM.
Where [25] appears, read: second compound 3.16 µM, first compound 0.001 µM.
The mark [26] stands for this setting: second compound 3.16 µM, first compound 0.00316 µM.
Where [27] appears, read: second compound 3.16 µM, first compound 0.01 µM.
The mark [28] stands for this setting: second compound 3.16 µM, first compound 0.0316 µM.
Where [29] appears, read: second compound 3.16 µM, first compound 0.1 µM.
The mark [30] stands for this setting: second compound 10 µM, first compound 0.000316 µM.
Setting [31] is: second compound 10 µM, first compound 0.001 µM.
Where [32] appears, read: second compound 10 µM, first compound 0.00316 µM.
The mark [33] stands for this setting: second compound 10 µM, first compound 0.01 µM.
Where [34] appears, read: second compound 10 µM, first compound 0.0316 µM.
Setting [35] is: second compound 10 µM, first compound 0.1 µM.

Regarding `CC[C@@]1(O)C(=O)OCc2c1cc1n(c2=O)Cc2cc3c(CN(C)C)c(O)ccc3nc2-1` + NC1CC1c1ccc(-c2cccc(O)c2)cc1, the IC50 (as a rule, the concentration needed to halve the response being measured) is, setting by setting: under setting [1], 71.1 nM; under setting [2], 80.4 nM; under setting [3], 36.6 nM; under setting [4], 37.4 nM; under setting [5], 21 nM. Also, the viability, T/C (commonly the ratio of treated to control) is, setting by setting: under setting [6], 103%; under setting [7], 104%; under setting [8], 84.4%; under setting [9], 68.9%; under setting [10], 64.3%; under setting [11], 44.2%. The viability, T/C was 108% under setting [12]; 107% under setting [13]; 87.8% under setting [14]; 70.5% under setting [15]; 61.9% under setting [16]; 46.4% under setting [17]. Further, the viability, T/C runs as follows: under setting [18], 103%; under setting [19], 105%; under setting [20], 90.7%; under setting [21], 70.3%; under setting [22], 53.2%; under setting [23], 39.6%. The viability, T/C under setting [24] is 101%; the viability, T/C under setting [25] was 96.7%; the viability, T/C under setting [26] is 90.5%; the viability, T/C under setting [27] was 66.8%; the viability, T/C under setting [28] was 55.9%; the viability, T/C under setting [29] is 33.6%. For the same molecule, the viability, T/C is 90.1% under setting [30]; 85.3% under setting [31]; 78.9% under setting [32]; 57.3% under setting [33]; 47% under setting [34]; 37.4% under setting [35].
With `O=C(C=Cn1cnc(-c2cc(C(F)(F)F)cc(C(F)(F)F)c2)n1)NNc1cnccn1`, the viability, T/C by setting is: (compound 0.00316 µM) 16.8% and 17.6%; (compound 0.01 µM) 12.1% and 12.7%; (compound 0.0316 µM) 4.83% and 4.44%; (compound 0.1 µM) 1.49% and 1.82%; (compound 0.316 µM) 1.62% and 1.88%; (compound 1 µM) 1.54% and 1.63%. Also, the IC50 (curve of compound) was below 3.16 nM.
As for `CC(C)CC(NC(=O)C(Cc1ccccc1)NC(=O)c1cnccn1)B(O)O` (centres undefined) + NC1CCC(NC2CC2c2ccccc2)CC1, the IC50 was below 0.316 nM under setting [1]; below 0.316 nM under setting [2]; below 0.316 nM under setting [3]; below 0.316 nM under setting [4]; below 0.316 nM under setting [5]. Further, the viability, T/C was 9.27% under setting [6]; 1.3% under setting [7]; 3.65% under setting [8]; 0.1% under setting [9]; 0.06% under setting [10]; 0.11% under setting [11]. The viability, T/C reads like this: under setting [12], 8.56%; under setting [13], 1.25%; under setting [14], 0.38%; under setting [15], 0.1%; under setting [16], 0.09%; under setting [17], 0.14%. Also, the viability, T/C under setting [18] is 10.1%; the viability, T/C under setting [19] is 1.4%; the viability, T/C under setting [20] is 0.35%; the viability, T/C under setting [21] is 0.2%; the viability, T/C under setting [22] is 0.03%; the viability, T/C under setting [23] is 2.22%. In addition, the viability, T/C was 9.75% under setting [24]; 3.48% under setting [25]; 0.44% under setting [26]; 0.14% under setting [27]; 0.04% under setting [28]; 1.61% under setting [29]. For the same molecule, the viability, T/C by setting is: under setting [30], 5.79%; under setting [31], 0.65%; under setting [32], 0.32%; under setting [33], 0.23%; under setting [34], 0.09%; under setting [35], 0.37%.
In the case of `COc1cc(Nc2ncc3c(n2)-c2ccc(Cl)cc2C(c2c(F)cccc2OC)=NC3)ccc1C(=O)O` + NC1CC1c1ccc(-c2cccc(O)c2)cc1, the IC50 was found to be 442 nM under setting [1]; 506 nM under setting [2]; 517 nM under setting [3]; 380 nM under setting [4]; 301 nM under setting [5]. For the same molecule, the viability, T/C was 59.8% under setting [8]; 67.3% under setting [9]; 64.1% under setting [10]; 62.7% under setting [11]; 58.5% (second compound 0.1 µM, first compound 0.316 µM); 29.4% (second compound 0.1 µM, first compound 1 µM). Moreover, the viability, T/C was 60.5% under setting [14]; 68.1% under setting [15]; 68% under setting [16]; 65.7% under setting [17]; 61.9% (second compound 0.316 µM, first compound 0.316 µM); 32.6% (second compound 0.316 µM, first compound 1 µM). Also, the viability, T/C under setting [20] is 67.2%; the viability, T/C under setting [21] is 70%; the viability, T/C under setting [22] is 68.7%; the viability, T/C under setting [23] is 69.2%; the viability, T/C (second compound 1 µM, first compound 0.316 µM) is 63.2%; the viability, T/C (second compound 1 µM, first compound 1 µM) is 31.9%. Besides, the viability, T/C is 71.3% under setting [26]; 75.5% under setting [27]; 72.5% under setting [28]; 69.1% under setting [29]; 54.7% (second compound 3.16 µM, first compound 0.316 µM); 25.4% (second compound 3.16 µM, first compound 1 µM). In addition, the viability, T/C reads like this: under setting [32], 59.4%; under setting [33], 61%; under setting [34], 64.1%; under setting [35], 56.9%; (second compound 10 µM, first compound 0.316 µM) 49.9%; (second compound 10 µM, first compound 1 µM) 25.3%.
On to `CCc1c2c(nc3ccc(O)cc13)-c1cc3c(c(=O)n1C2)COC(=O)[C@]3(O)CC`, for which the viability, T/C was 59.6% and 33.9% (compound 0.000949 µM); 43% and 40.4% (compound 0.003 µM); 26.6% and 22% (compound 0.00949 µM); 19.3% and 18.7% (compound 0.03 µM); 10.9% and 21% (compound 0.0949 µM); 6.24% and 21.4% (compound 0.3 µM). Further, the half-maximal inhibitory concentration (IC50) (curve of compound) was 1.8 nM and < 0.949 nM.
